Laboratory results taken from patent publication US20220280661A1, “GLUCOCORTICOID RECEPTOR RADIOLIGANDS AND METHODS FOR THEIR PREPARATION AND USE” (The Regents of the University of California, priority 2019, published 2022).

Target: T1, GR (Mus musculus, UniProt P06537)
T1 construct: from tissue; host or cells: tissues of C57BL6/J mice (intact or adrenalectomized), in vivo
T1 sequence (P06537 1-792): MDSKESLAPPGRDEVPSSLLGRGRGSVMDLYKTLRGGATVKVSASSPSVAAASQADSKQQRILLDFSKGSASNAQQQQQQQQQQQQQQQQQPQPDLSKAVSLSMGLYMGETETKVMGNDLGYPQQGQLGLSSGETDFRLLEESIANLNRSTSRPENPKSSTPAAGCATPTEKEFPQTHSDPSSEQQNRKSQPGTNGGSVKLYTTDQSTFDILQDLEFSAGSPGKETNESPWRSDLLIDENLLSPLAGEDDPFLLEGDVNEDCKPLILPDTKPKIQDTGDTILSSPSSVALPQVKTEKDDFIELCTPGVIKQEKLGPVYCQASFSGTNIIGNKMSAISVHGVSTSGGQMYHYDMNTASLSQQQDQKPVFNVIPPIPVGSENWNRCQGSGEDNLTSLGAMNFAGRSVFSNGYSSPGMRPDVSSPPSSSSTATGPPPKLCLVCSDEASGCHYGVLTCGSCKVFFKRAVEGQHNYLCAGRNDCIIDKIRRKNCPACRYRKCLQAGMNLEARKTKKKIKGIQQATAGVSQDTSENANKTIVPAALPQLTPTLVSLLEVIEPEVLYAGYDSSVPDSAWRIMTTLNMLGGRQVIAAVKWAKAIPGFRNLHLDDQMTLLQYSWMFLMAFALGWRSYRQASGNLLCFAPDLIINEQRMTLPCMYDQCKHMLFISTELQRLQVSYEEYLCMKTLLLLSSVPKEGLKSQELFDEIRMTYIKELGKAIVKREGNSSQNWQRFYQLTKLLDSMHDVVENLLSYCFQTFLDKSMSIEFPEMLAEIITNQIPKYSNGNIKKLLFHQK
Test: 11C radiotracer biodistribution with dexamethasone or Dex-CD blocking
Type: in vivo
Conditions: 20 min after injection
Description: Animal Studies. All animal experiments were performed under the approval of the Institutional Animal Care and Use Committee (IACUC) at UCSF. C57BL6/J mice (4-6 weeks) were purchased from Charles River. All the mice were housed in a dedicated vivarium with free access to food and water. […] Adrenalectomized mice were purchased from Charles River and provided drinking water supplemented with NaCl (aq) per instructions until the time of the tracer biodistribution study.
Biodistribution Studies. Mice were euthanized after radiotracer (7.4-18.5 MBq in 100-150 μL) injection with CO2 (g) asphyxiation and dissected at dedicated time points post injection. The blood and tissues were collected, washed, dried, and weighed. The activity of each tissue was measured with a gamma counter. All data was decay corrected. PRISM software was used to express a percentage (% ID/g) of the injected dose per gram of tissue.
The P value indicates the result of an unpaired, two-tailed Student's t test between the respective treatment group and vehicle (n=5/group).
Table 10 summarizes biodistribution data collected 20 minutes after injection of ^11C-YJH02 among two treatment arms receiving vehicle or one intraperitoneal injection of the water-soluble dexamethasone-cyclodextrin complex at 10 mg/kg one hour prior to radiotracer administration. The P value indicates the result of an unpaired, two-tailed Student's t test between the respective treatment group and vehicle (n=5/group).

[1] = mice given Dex-CD 10 mg/kg intraperitoneal one hour prior to radiotracer
[2] = mice given dexamethasone 50 mg/kg via gavage once daily for three days

## CC1=CC(C)(C)Nc2ccc3c(c21)C(Cc1ccc(F)cc1)Oc1cccc(O[11CH3])c1-3 (racemic) [(±)-^11C-YJH08]
[1]
  radiotracer uptake, Adrenal: 5.67 ± 2.6 % ID/g
  radiotracer uptake, Blood: 3.72 ± 0.2 % ID/g
  radiotracer uptake, Bone: 1.95 ± 1.6 % ID/g
  radiotracer uptake, Brain: 1.40 ± 0.2 % ID/g
  radiotracer uptake, Brown Fat: 8.68 ± 2.4 % ID/g
  radiotracer uptake, Heart: 5.95 ± 0.7 % ID/g
  radiotracer uptake, Kidney: 4.11 ± 0.4 % ID/g
  radiotracer uptake, Lg. Int.: 1.38 ± 0.3 % ID/g
  radiotracer uptake, Liver: 12.47 ± 0.8 % ID/g
  radiotracer uptake, Lung: 5.09 ± 0.7 % ID/g
  radiotracer uptake, Muscle: 1.16 ± 0.2 % ID/g
  radiotracer uptake, Pancreas: 3.14 ± 0.3 % ID/g
  radiotracer uptake, Sm. Int.: 15.72 ± 3.2 % ID/g
  radiotracer uptake, Spleen: 5.72 ± 0.7 % ID/g
  radiotracer uptake, Stomach: 1.79 ± 0.8 % ID/g
[2]
  radiotracer uptake, Adrenal: 9.24 ± 3.6 % ID/g
  radiotracer uptake, Blood: 4.58 ± 1.9 % ID/g
  radiotracer uptake, Bone: 1.06 ± 0.4 % ID/g
  radiotracer uptake, Brain: 1.02 ± 0.3 % ID/g
  radiotracer uptake, Brown Fat: 4.58 ± 2.3 % ID/g
  radiotracer uptake, Heart: 3.86 ± 1.6 % ID/g
  radiotracer uptake, Kidney: 2.96 ± 0.9 % ID/g
  radiotracer uptake, Lg. Int.: 1.01 ± 0.5 % ID/g
  radiotracer uptake, Liver: 5.22 ± 2.7 % ID/g
  radiotracer uptake, Lung: 3.39 ± 1.6 % ID/g
  radiotracer uptake, Muscle: 0.84 ± 0.4 % ID/g
  radiotracer uptake, Pancreas: 1.52 ± 0.7 % ID/g
  radiotracer uptake, Sm. Int.: 30.24 ± 12.7 % ID/g
  radiotracer uptake, Spleen: 3.71 ± 1.5 % ID/g
  radiotracer uptake, Stomach: 0.71 ± 0.2 % ID/g
Mice given vehicle
  radiotracer uptake, Adrenal: 17.63 ± 2.9 % ID/g
  radiotracer uptake, Blood: 4.82 ± 0.4 % ID/g
  radiotracer uptake, Bone: 1.46 ± 0.5 % ID/g
  radiotracer uptake, Brain: 1.98 ± 0.1 % ID/g
  radiotracer uptake, Brown Fat: 9.52 ± 0.9 % ID/g
  radiotracer uptake, Heart: 7.06 ± 0.8 % ID/g
  radiotracer uptake, Kidney: 7.22 ± 0.8 % ID/g
  radiotracer uptake, Lg. Int.: 1.70 ± 0.3 % ID/g
  radiotracer uptake, Liver: 16.25 ± 0.8 % ID/g
  radiotracer uptake, Lung: 6.80 ± 0.7 % ID/g
  radiotracer uptake, Muscle: 1.85 ± 0.1 % ID/g
  radiotracer uptake, Pancreas: 4.64 ± 0.1 % ID/g
  radiotracer uptake, Sm. Int.: 28.72 ± 14.5 % ID/g
  radiotracer uptake, Spleen: 7.28 ± 1.8 % ID/g
  radiotracer uptake, Stomach: 2.62 ± 1.5 % ID/g
